Values of other authors as cited in patent US7365075B2, “Aryl sulfonamide compounds and uses related thereto” (Amgen Inc., priority 2003, dated 2008).

How the values were obtained:
[1] = system: normal patients
[2] = system: humans
[3] = system: bone nodule formation

SMILES: CC1(C)[C@@H](OC(=O)CCC(=O)O)CC[C@]2(C)[C@H]3C(=O)C=C4[C@@H]5C[C@@](C)(C(=O)O)CC[C@]5(C)CC[C@@]4(C)[C@]3(C)CC[C@@H]12 [carbenoxolone]
- reduction of the intraocular pressure [1]: 20%
- hepatic insulin sensitivity [2]: improved hepatic insulin sensitivity
- detrimental effects of glucocorticoids on bone nodule formation [3]: lessened
